Where only a bound is given, the exact number is not on record here.

Test system in the first series: not given
Assay: not given
To be noted: 15 min incubation with active microsomes, compound 5 μM.
Consider `CCCO` [propanol], for which the “% metabolism” value is on record as 25%.

Still in this series, the particulars now being: human, 15 min, 5 μM.
For the compound `COc1cc(N)c(Cl)cc1C(=O)NC1CCN(CCCOc2ccc(F)cc2)CC1OC` (stereo not shown) [Cisapride], the “% metabolism” value worked out at 45%.

Test system in another series: not listed separately
Nature of the series: Metabolic stability with rat hepatocytes cell culture. It counts as in vitro ADME. To be noted: rat hepatocyte cell cultures, 5 μM. The source says: Metabolism of drugs means that a lipid-soluble xenobiotic or endobiotic compound is enzymatically transformed into (a) polar, water-soluble, and excretable metabolite(s). The major organ for drug metabolism is the liver. […] However, some metabolites may have enhanced activity or toxic effects. Thus drug metabolism may include both “detoxication” and “toxication” processes. One of the major enzyme systems that determine the organism's capability of dealing with drugs and chemicals is represented by the cytochrome P450 monooxygenases, which are NADPH dependent enzymes. Metabolic stability of compounds can be determined in vitro with the use of subcellular human tissue (see example C.5.a.). Here metabolic stability of the compounds is expressed as % of drug metabolised after 15 minutes incubation of these compounds with microsomes. Quantitation of the compounds was determined by LC-MS analysis. Metabolic stability of compounds can also be determined by calculating the half live of compounds in rat hepatocyte cells (see example C.5.b.). […]
Samples were prepared for LC-MS by addition of two volumes of DMSO. […] Of the resulting supernatant 50 μl was analysed by LC-MS. […]
Total injection volume of samples was 50 μL. […] The mass spectrometer was operated in positive ion mode in SIM adjusted to the mass of […] with a scan width of 1 Da for quantification purposes. […]
Regarding `O=C(NO)c1cnc(N2CCN(S(=O)(=O)c3ccc4ccccc4c3)CC2)nc1` [Compound R306465, reference compound], the in vitro half-live is given as 8 min.

Test system in another series: not given
Assay: not given
Details: not given
As to `O=C(NO)c1cnc(N2CCC(CNC(/C=C/c3ccccc3)CO)CC2)nc1` (stereo not shown) (hydrate or solvate) [Compound 1], the melting point is 196 °C.

For `O=C(NO)c1cnc(N2CCC(NC(/C=C/c3ccccc3)CO)CC2)nc1` (stereo not shown) (hydrate or solvate) [Compound 2], the melting point turned out to be 109 °C.

In the case of `CC(/C=C/c1ccccc1)NCC1CCN(c2ncc(C(=O)NO)cn2)CC1` (stereo not shown) [Compound 3], the melting point is 155 °C.

With `CC(=O)N(CC1CCN(c2ncc(C(=O)NO)cn2)CC1)C(C)/C=C/c1ccccc1` (stereo not shown) [Compound 4], the melting point stood at 100 °C.

For the compound `Nc1ccccc1NC(=O)c1cnc(N2CCC(CNC(/C=C/c3ccccc3)CO)CC2)nc1` (stereo not shown) [Compound 5], the melting point came out at 178 °C.

Take `O=C(NO)c1cnc(N2CCOC(CNC(/C=C/c3ccccc3)CO)C2)nc1` (stereo not shown) [Compound 6]: the melting point was determined as 111 °C.

Compound `Nc1ccccc1NC(=O)c1cnc(N2CCOC(CNC(/C=C/c3ccccc3)CO)C2)nc1` (stereo not shown) [Compound 7] registered a melting point of 95 °C.

Compound `CC(/C=C/c1ccccc1)N(CC1CCN(c2ncc(C(=O)NO)cn2)CC1)S(C)(=O)=O` (stereo not shown) [Compound 8] showed a melting point of 110 °C.

Test system in another series: not listed separately
Nature of the series: Solubility/stability (chemiluminescent nitrogen detector). It counts as physicochemical. To be noted: water. The source says: The solubility of a compound measures the ability of a compound to stay in solution. The solubility of a compound at different pH's can be measured with the use of a chemiluminescent nitrogen detector (see example C.3).
The solubility of a compound, at different pH's, can be measured with the use of a chemiluminescent nitrogen detector.
Compound `O=C(NO)c1cnc(N2CCC(NC(/C=C/c3ccccc3)CO)CC2)nc1` (stereo not shown) [Compound 2] showed a solubility greater than 500 µg/mL.

In the case of `CC(/C=C/c1ccccc1)NCC1CCN(c2ncc(C(=O)NO)cn2)CC1` (stereo not shown) [Compound 3], the solubility was greater than 1000 µg/mL.

In the case of `CC(=O)N(CC1CCN(c2ncc(C(=O)NO)cn2)CC1)C(C)/C=C/c1ccccc1` (stereo not shown) [Compound 4], the solubility is greater than 100 µg/mL.

Another series addresses histone deacetylase (HeLa nuclear extracts). Nature of the series: In vitro assay for inhibition of histone deacetylase (HDAC Fluorescent Activity Assay, Fluor de Lys). The class given is biochemical. To be noted: HeLa nuclear extracts 60 μg/ml, 75 μM Fluor de Lys substrate. The source says: The in vitro assay for inhibition of histone deacetylase (see example C.1) measures the inhibition of HDAC enzymatic activity obtained with the compounds of formula (I).
The HDAC Fluorescent Activity Assay/Drug Discovery Kit of Biomol (cat.No: AK-500-0001) was used. The HDAC Fluorescent Activity Assay is based on the Fluor de Lys (Fluorogenic Histone deAcetylase Lysyl) substrate and developer combination. The Fluor de Lys substrate, comprises an acetylated lysine side chain. Deacetylation of the substrate sensitizes the substrate so that, in the second step, treatment with the Fluor de Lys developer produces a fluorophore.
HeLa nuclear extracts (supplier: Biomol) were incubated at 60 μg/ml with 75 μM of substrate. The Fluor de Lys substrate was added in a buffer containing 25 mM Tris, 137 mM. NaCl, 2.7 mM KCl and 1 mM MgCl2.6H2O at pH 7.4. After 30 min, 1 volume of the developer was added. The fluorophore was excited with 355 nm light and the emitted light (450 nm) was be detected on a fluorometric plate reader.
For each experiment, controls (containing HeLa nuclear extract and buffer), a blank incubation (containing buffer but no HeLa nuclear extract) and samples (containing compound dissolved in DMSO and further diluted in buffer and HeLa nuclear extract) were run in parallel. In first instance, compounds were tested at a concentration of 10^−5M. […] All sample were tested 4 times. In each test the blank value was substracted from both the control and the sample values. The control sample represented 100% of substrate deactylation. For each sample the fluorescence was expressed as a percentage of the mean value of the controls. […] Herein the effects of test compounds are expressed as pIC50 (the negative log value of the IC50-value) (see Table F-3).
With `O=C(NO)c1cnc(N2CCC(NC(/C=C/c3ccccc3)CO)CC2)nc1` (stereo not shown) [Compound 2], the “Enzyme activity pIC50” value is 8.0.

As for `CC(/C=C/c1ccccc1)NCC1CCN(c2ncc(C(=O)NO)cn2)CC1` (stereo not shown) [Compound 3], the “Enzyme activity pIC50” value is 8.3.

With `CC(=O)N(CC1CCN(c2ncc(C(=O)NO)cn2)CC1)C(C)/C=C/c1ccccc1` (stereo not shown) [Compound 4], the “Enzyme activity pIC50” value was determined as 8.7.

Consider `Nc1ccccc1NC(=O)c1cnc(N2CCC(CNC(/C=C/c3ccccc3)CO)CC2)nc1` (stereo not shown) [Compound 5], for which the “Enzyme activity pIC50” value is recorded as 6.0.

In the case of `O=C(NO)c1cnc(N2CCOC(CNC(/C=C/c3ccccc3)CO)C2)nc1` (stereo not shown) [Compound 6], the “Enzyme activity pIC50” value is 8.1.

For `Nc1ccccc1NC(=O)c1cnc(N2CCOC(CNC(/C=C/c3ccccc3)CO)C2)nc1` (stereo not shown) [Compound 7], the “Enzyme activity pIC50” value was found to be 6.0.

Regarding `CC(/C=C/c1ccccc1)N(CC1CCN(c2ncc(C(=O)NO)cn2)CC1)S(C)(=O)=O` (stereo not shown) [Compound 8], the “Enzyme activity pIC50” value came to 9.5.

Another series relates to A2780 ovarian carcinoma cells. The series can be described thus: Determination of antiproliferative activity on A2780 cells (MTT). The class given is cell-based. To be noted: Homo sapiens, 96 h, four days of incubation, read-out: Cellular activity pIC50 (converted). The procedure:
Cellular activity of the compounds of formula (I) was determined on A2780 tumour cells using a colorimetric assay for cell toxicity or survival (Mosmann Tim, Journal of Immunological Methods 65:55-63, 1983)(see example C.2).
All compounds tested were dissolved in DMSO and further dilutions were made in culture medium. Final DMSO concentrations never exceeded 0.1% (v/v) in cell proliferation assays. Controls contained A2780 cells and DMSO without compound and blanks contained DMSO but no cells. MTT was dissolved at 5 mg/ml in PBS. A glycine buffer comprised of 0.1 M glycine and 0.1 M NaCl buffered to pH 10.5 with NaOH (1 N) was prepared (all reagents were from Merck).
The human A2780 ovarian carcinoma cells (a kind gift from Dr. T. C. Hamilton [Fox Chase Cancer Centre, Pennsylvania, USA]) were cultured in RPMI 1640 medium supplemented with 2 mM L-glutamine, 50 μg/ml gentamicin and 10% fetal calf serum. Cells were routinely kept as monolayer cultures at 37° C. in a humidified 5% CO2 atmosphere. Cells were passaged once a week using a trypsin/EDTA solution at a split ratio of 1:40. All media and supplements were obtained from Life Technologies. Cells were free of mycoplasma contamination as determined using the Gen-Probe Mycoplasma Tissue Culture kit (supplier: BioMerieux).
Cells were seeded in NUNC™ 96-well culture plates (Supplier: Life Technologies) and allowed to adhere to the plastic overnight. Densities used for plating were 1500 cells per well in a total volume of 200 μl medium. After cell adhesion to the plates, medium was changed and drugs and/or solvents were added to a final volume of 200 μl. Following four days of incubation, medium was replaced by 200 μl fresh medium and cell density and viability was assessed using an MTT-based assay. To each well, 25 μl MTT solution was added and the cells were further incubated for 2 hours at 37° C. The medium was then carefully aspirated and the blue MTT-formazan product was solubilized by addition of 25 μl glycine buffer followed by 100 μl of DMSO. […] Within an experiment, the results for each experimental condition are the mean of 3 replicate wells. For initial screening purposes, compounds were tested at a single fixed concentration of 10^−6 M. For active compounds, the experiments were repeated to establish full concentration-response curves. For each experiment, controls (containing no drug) and a blank incubation (containing no cells or drugs) were run in parallel. The blank value was subtracted from all control and sample values. For each sample, the mean value for cell growth (in absorbance units) was expressed as a percentage of the mean value for cell growth of the control. […] Herein the effects of test compounds are expressed as pIC50 (the negative log value of the IC50-value)(see Table F-3).
`O=C(NO)c1cnc(N2CCC(NC(/C=C/c3ccccc3)CO)CC2)nc1` (stereo not shown) [Compound 2]: the IC50 was 158 nM.

`CC(/C=C/c1ccccc1)NCC1CCN(c2ncc(C(=O)NO)cn2)CC1` (stereo not shown) [Compound 3]: the IC50 is 50.1 nM.

On to `CC(=O)N(CC1CCN(c2ncc(C(=O)NO)cn2)CC1)C(C)/C=C/c1ccccc1` (stereo not shown) [Compound 4], for which the IC50 was 158 nM.

Consider `Nc1ccccc1NC(=O)c1cnc(N2CCC(CNC(/C=C/c3ccccc3)CO)CC2)nc1` (stereo not shown) [Compound 5], for which the IC50 was 3160 nM.

As to `O=C(NO)c1cnc(N2CCOC(CNC(/C=C/c3ccccc3)CO)C2)nc1` (stereo not shown) [Compound 6], the IC50 was 79.4 nM.

For the compound `Nc1ccccc1NC(=O)c1cnc(N2CCOC(CNC(/C=C/c3ccccc3)CO)C2)nc1` (stereo not shown) [Compound 7], the IC50 is 1260 nM.

For the compound `CC(/C=C/c1ccccc1)N(CC1CCN(c2ncc(C(=O)NO)cn2)CC1)S(C)(=O)=O` (stereo not shown) [Compound 8], the IC50 is 200 nM.

As a reminder, the melting point is the temperature, or range, at which the solid turns liquid. Broadly, the solubility is how much of the substance goes into solution per volume.

Values taken from US8377935B2, “Substituted aminopropenyl piperidine or morpholine derivatives as novel inhibitors of histone deacetylase” (Janssen Pharmaceutica N.V., priority 2005, dated 2013).
